From ChEMBL document CHEMBL3045550, “Design, synthesis and biological activities of new strobilurin derivatives containing substituted pyrazoles” (2010)

How the values were obtained:
Assay type in all cases: functional
[1] = test system: Tetranychus cinnabarinus; experiment: Acaricidal activity against Tetranychus cinnabarinus (carmine spider mite) in kidney bean plants assessed as mortality at 40 mg/l after 48 hr relative to control
[2] = test system: Blumeria graminis f. sp. tritici; experiment: Antifungal activity against Blumeria graminis f. sp. tritici infected seven-day-old wheat seedlings assessed as disease control at 1.56 mg/l after 7 days relative to control
[3] = test system: Tetranychus cinnabarinus; experiment: Acaricidal activity against Tetranychus cinnabarinus (carmine spider mite) in kidney bean plants assessed as mortality at 20 mg/l after 48 hr relative to control
[4] = test system: Tetranychus cinnabarinus; experiment: Acaricidal activity against Tetranychus cinnabarinus (carmine spider mite) in kidney bean plants assessed as mortality at 38 mg/l after 48 hr relative to control
[5] = test system: Tetranychus cinnabarinus; experiment: Acaricidal activity against Tetranychus cinnabarinus (carmine spider mite) in kidney bean plants assessed as mortality at 5 mg/l after 48 hr relative to control
[6] = test system: Pseudoperonospora cubensis; experiment: Antifungal activity against Pseudoperonospora cubensis infected cucumber leaves assessed as disease control at 3.12 mg/l after 5 days relative to control
[7] = test system: Botrytis cinerea; experiment: Antifungal activity against Botryotinia fuckeliana infected cucumber leaves assessed as disease control at 400 mg/l after 4 days relative to control
[8] = test system: Tetranychus cinnabarinus; experiment: Acaricidal activity against Tetranychus cinnabarinus (carmine spider mite) in kidney bean plants assessed as mortality at 600 mg/l after 48 hr relative to control
[9] = test system: Tetranychus cinnabarinus; experiment: Acaricidal activity against Tetranychus cinnabarinus (carmine spider mite) in kidney bean plants assessed as mortality at 150 mg/l after 48 hr relative to control
[10] = test system: Pseudoperonospora cubensis; experiment: Antifungal activity against Pseudoperonospora cubensis infected cucumber leaves assessed as disease control at 400 mg/l after 5 days relative to control
[11] = test system: Blumeria graminis f. sp. tritici; experiment: Antifungal activity against Blumeria graminis f. sp. tritici infected seven-day-old wheat seedlings assessed as disease control at 400 mg/l after 7 days relative to control
[12] = test system: Tetranychus cinnabarinus; experiment: Acaricidal activity against Tetranychus cinnabarinus (carmine spider mite) in kidney bean plants assessed as mortality at 2.5 mg/l after 48 hr relative to control
[13] = test system: Tetranychus cinnabarinus; experiment: Acaricidal activity against Tetranychus cinnabarinus (carmine spider mite) in kidney bean plants assessed as mortality at 1.25 mg/l after 48 hr relative to control
[14] = test system: Blumeria graminis f. sp. tritici; experiment: Antifungal activity against Blumeria graminis f. sp. tritici infected seven-day-old wheat seedlings assessed as disease control at 12.5 mg/l after 7 days relative to control
[15] = test system: Pseudoperonospora cubensis; experiment: Antifungal activity against Pseudoperonospora cubensis infected cucumber leaves assessed as disease control at 25 mg/l after 5 days relative to control
[16] = test system: Pseudoperonospora cubensis; experiment: Antifungal activity against Pseudoperonospora cubensis infected cucumber leaves assessed as disease control at 6.25 mg/l after 5 days relative to control
[17] = test system: Pyricularia oryzae; experiment: Antifungal activity against Magnaporthe oryzae infected 12 day old rice plant assessed as disease control at 400 mg/l after 6 days relative to control
[18] = test system: Tetranychus cinnabarinus; experiment: Acaricidal activity against Tetranychus cinnabarinus (carmine spider mite) in kidney bean plants assessed as mortality at 10 mg/l after 48 hr relative to control

Structure (SMILES) | Activity [1] [%] | Activity [2] [%] | Activity [3] [%] | Activity [4] [%] | Activity [5] [%] | Activity [6] [%] | Activity [7] [%] | Activity [8] [%] | Activity [9] [%] | Activity [10] [%] | Activity [11] [%] | Activity [12] [%] | Activity [13] [%] | Activity [14] [%] | Activity [15] [%] | Activity [16] [%] | Activity [17] [%] | Activity [18] [%]
CO/C=C(/C(=O)OC)c1ccccc1COc1c(C)c(-c2ccc(C)cc2C)nn1C | 100 | 90 | 100 | 100 | 85 | 80 | 50 | 100 | 100 | 100 | 100 | 36 | 28 | 100 | 100 | 98 | 100 | 89
CO/C=C(/C(=O)OC)c1ccccc1COc1c(C)c(-c2cc(C)ccc2C)nn1C [METHYL 2-(2-((3-(2,5-DIMETHYLPHENYL)-1,4-DIMETHYL-1H-PYRAZOL-5-YLOXY)METHYL)PHENYL)-3-METHOXYACRYLATE] | – | 0 | – | 0 | – | 0 | 50 | 100 | 20 | 100 | 100 | – | – | 50 | 80 | 0 | 100 | –
CO/C=C(/C(=O)OC)c1ccccc1COc1c(C)c(-c2ccc(C)c(C)c2)nn1C [METHYL 2-(2-((3-(3,4-DIMETHYLPHENYL)-1,4-DIMETHYL-1H-PYRAZOL-5-YLOXY)METHYL)PHENYL)-3-METHOXYACRYLATE] | – | 70 | – | 0 | – | 30 | 50 | 100 | 80 | 100 | 100 | – | – | 100 | 100 | 85 | 100 | –
CO/C=C(/C(=O)OC)c1ccccc1COc1cc(-c2ccc(C)c(C)c2)nn1C [METHYL 2-(2-((3-(3,4-DIMETHYLPHENYL)-1-METHYL-1H-PYRAZOL-5-YLOXY)METHYL)PHENYL)-3-METHOXYACRYLATE] | – | 80 | – | 0 | – | 35 | 50 | 100 | 0 | 100 | 100 | – | – | 100 | 100 | 40 | 100 | –
CO/C=C(/C(=O)OC)c1ccccc1COc1cc(-c2ccc(Br)cc2)nn1C [METHYL 2-(2-((3-(4-BROMOPHENYL)-1-METHYL-1H-PYRAZOL-5-YLOXY)METHYL)PHENYL)-3-METHOXYACRYLATE] | – | 10 | – | 57 | – | 60 | 0 | 100 | 71 | 100 | 100 | – | – | 100 | 100 | 85 | 70 | –
CCOc1ccc(-c2nn(C)c(OCc3ccccc3/C(=C\OC)C(=O)OC)c2C)cc1 [METHYL 2-(2-((3-(4-ETHOXYPHENYL)-1,4-DIMETHYL-1H-PYRAZOL-5-YLOXY)METHYL)PHENYL)-3-METHOXYACRYLATE] | – | 65 | – | 20 | – | 0 | 100 | 100 | 35 | 100 | 100 | – | – | 100 | 50 | 0 | 100 | –
CCc1ccc(-c2nn(C)c(OCc3ccccc3/C(=C\OC)C(=O)OC)c2C)cc1 [METHYL 2-(2-((3-(4-ETHYLPHENYL)-1,4-DIMETHYL-1H-PYRAZOL-5-YLOXY)METHYL)PHENYL)-3-METHOXYACRYLATE] | – | 0 | – | 30 | – | 20 | 0 | 100 | 100 | 100 | 100 | – | – | 100 | 100 | 60 | 0 | –
CO/C=C(/C(=O)OC)c1ccccc1COc1c(C)c(-c2ccc(C(C)(C)C)cc2)nn1C [METHYL 2-(2-((3-(4-TERT-BUTYLPHENYL)-1,4-DIMETHYL-1H-PYRAZOL-5-YLOXY)METHYL)PHENYL)-3-METHOXYACRYLATE] | – | 0 | – | 0 | – | 0 | 50 | 100 | 0 | 95 | 90 | – | – | 10 | 20 | 0 | 50 | –
CO/C=C(/C(=O)OC)c1ccccc1COc1c(C)c(-c2ccc(OC)cc2)nn1C [METHYL 3-METHOXY-2-(2-((3-(4-METHOXYPHENYL)-1,4-DIMETHYL-1H-PYRAZOL-5-YLOXY)METHYL)PHENYL)ACRYLATE] | – | 95 | – | 0 | – | 55 | 100 | 90 | 0 | 100 | 100 | – | – | 100 | 100 | 96 | 100 | –
CO/C=C(/C(=O)OC)c1ccccc1COc1cc(-c2ccc(Cl)cc2)nn1C [PYRAOXYSTROBIN] | – | 0 | – | 0 | – | 100 | 100 | 100 | 0 | 100 | 100 | – | – | 75 | 100 | 100 | 100 | –
CC(C)(C)c1ccc(CSc2cnn(C(C)(C)C)c(=O)c2Cl)cc1 [PYRIDABEN] | 77 | – | 57 | – | 22 | – | – | – | – | – | – | 12 | 0 | – | – | – | – | 48
